Source: US5288621A, “Pituitary TRH receptor” (Cornell Research Foundation, Inc., priority 1990, dated 1994)
Read-outs that look alike come from different tables or passages of the source.

Key:
[1] = biological target: T1, TRH receptor (TRH-R) expressed in Xenopus oocytes (Mus musculus, UniProt P21761); experiment: Competition for [3H]methylTRH binding to intact Xenopus oocytes injected with RNA transcribed in vitro from pBSmTRHR
T1 construct: injected with RNA transcribed in vitro from the plasmid containing the TRH-R cDNA (pBSmTRHR); expressed in transfected cells; host or cells: Xenopus laevis oocytes injected with in vitro transcribed RNA from pBSmTRHR
T1 sequence (P21761 1-393): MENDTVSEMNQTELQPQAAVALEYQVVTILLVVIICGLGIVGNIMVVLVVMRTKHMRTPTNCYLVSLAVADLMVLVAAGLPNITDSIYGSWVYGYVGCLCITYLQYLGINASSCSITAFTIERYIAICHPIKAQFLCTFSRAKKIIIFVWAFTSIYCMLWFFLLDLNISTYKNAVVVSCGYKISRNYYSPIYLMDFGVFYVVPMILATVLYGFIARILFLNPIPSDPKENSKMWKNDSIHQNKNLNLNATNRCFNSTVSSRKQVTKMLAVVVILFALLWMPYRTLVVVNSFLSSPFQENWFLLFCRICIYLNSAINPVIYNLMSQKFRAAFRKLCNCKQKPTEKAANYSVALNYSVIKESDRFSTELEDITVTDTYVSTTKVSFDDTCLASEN
Protocol: FIG. 2 depicts TRH (the filled squares) and chlordiazepoxide (the unfilled circles) competion for the binding of [^3 H]methylTRH to oocytes expressing TRH receptors 3 days after injection of 5 ng of in vitro transcribed RNA. The results are presented in this figure as mean ± S.E. of duplicate determinations.
Xenopus oocytes were injected with 5 ng of sense RNA transcripts ans assayed for specific binding of TRH and electrophysiological responses to TRH. Binding to intact oocytes was performed as described in the literature [see Molecular Endocrinology 3:9070 (1989)], using 2 nM [^3 H]methylTRH as the labeled ligand, and unlabeled TRH and chlordiazepoxide as competitive inhibitors.
Five to 10 oocytes were incubated at 4° C. in 0.2 ml OR-2 containing 40 nm [^3 H]methylTRH without or with 1 μl unlabeled TRH for up to 3 hours. Oocytes were washed 7 times with 4 ml ice-cold OR-2 solution and radioactivity measured by liquid scintillation counting. Specific binding was calculated by subtracting radioactivity bound in the presence from that in the absence of unlabeled TRH. Nonspecific binding was between 30 and 45% of total binding.

[2] = biological target: T2, TRH-R expressed in COS-1 cells (Mus musculus, UniProt P21761); experiment: Competition for [3H]methylTRH binding in COS-1 cells transfected with pCDM8mTRHR; conditions: 48 hours, read-out: K3 (Ki) for displacement of [3H]methylTRH binding
T2 construct: the entire TRH-R cDNA, according to the present invention, contained in a Not I/HindIII fragment was cloned directly into the eukaryotic expression vector pCDM8; expressed in transfected cells; host or cells: COS-1 cells transfected with pCDM8mTRHR
T2 sequence (P21761 1-393): T1 sequence (P21761 1-393)
Protocol: In FIGS. 6 and 7, COS-1 cells were transfected with the TRH-R cDNA according to the present invention, in the mammalian expression vector pCDM8 (pCDM8m TRHR) and assayed for binding and responses 48 hours later. Specifically, FIG. 6, depicts the TRH (filled squares) and chlordiazepoxide (unfilled circles) competition for the binding of [^3 H]methylTRH. COS-1 cells transfected with pCDM8mTRHR were assayed for the binding of [^3 H]methylTRH in the presence of increasing amounts of either unlabeled TRH or chlordiazepoxide. Results are presented as mean ± range of data from duplicate determinations in one of two similar experiments. In FIG. 7, COS-1 cells transfected with pCDM8mTRHR were labeled with myo-[^3 H]inositol for 48 hours, washed, and tested for dose-dependent stimulation of inositol phosphate production by TRH. The results are presented as mean ± S.D. of triplicate determinations from one of two similar experiments. […]
No specific binding or TRH stimulated inositol phosphate formation was detectable in untransfected COS-1 cells or cells transfected with pCDM8 alone. As depicted in FIG. 6, [^3 H]methylTRH binding and displacement by TRH and chlordiazepoxide were measured. […]

[3] = biological target: T2, TRH-R expressed in COS-1 cells; experiment: TRH-stimulated inositol phosphate formation in COS-1 cells transfected with pCDM8mTRHR; type: cell-based; conditions: labeled with myo-[3H]inositol 48 hours
Protocol: In FIGS. 6 and 7, COS-1 cells were transfected with the TRH-R cDNA according to the present invention, in the mammalian expression vector pCDM8 (pCDM8m TRHR) and assayed for binding and responses 48 hours later. […] In FIG. 7, COS-1 cells transfected with pCDM8mTRHR were labeled with myo-[^3 H]inositol for 48 hours, washed, and tested for dose-dependent stimulation of inositol phosphate production by TRH. The results are presented as mean ± S.D. of triplicate determinations from one of two similar experiments.
COS-1 cells were transfected using the DEAE dextran method, and after 48 to 72 hours the cells were assayed for [^3 H]methylTRH binding and TRH stimulated inositol phosphate formation.
On the day prior to transfection, 35 mm, 6 well tissue culture plates were seeded with 6×10^5 in DMEM with 10% FCS; cells should be just subconfluent for transfection. A transfection cocktail was prepared: supercoiled plasmid DNA (ethanol precipitated if necessary) was resuspended in 0.3 ml PBS, and then vortexed. 0.1 ml DEAE-dextran was added to bring the final concentration to 0.5 mg/ml, and the solution mixed thoroughly. The tissue culture medium was aspirated from the cell cultures and the COS cells were rinsed twice with 2 ml of PBS warmed to 37° C. […]

[4] = biological target: T3, TRH-R expressed in Xenopus oocytes (Mus musculus, UniProt P21761); experiment: Electrophysiological response to TRH in voltage-clamped Xenopus oocytes injected with RNA transcribed from the TRH-R cDNA; type: cell-based; conditions: 3 days after injection of 5 ng RNA
T3 construct: injected with RNA transcribed in vitro from the plasmid containing the TRH-R cDNA (pBSmTRHR); expressed in transfected cells; host or cells: Xenopus laevis oocytes injected with in vitro transcribed RNA from pBSmTRHR
T3 sequence (P21761 1-393): T1 sequence (P21761 1-393)
Protocol: FIG. 3 more specifically depicts the concentration-response relationship of Xenopus oocytes 3 days following injection of 5 ng of in vitro transcribed RNA. In FIG. 3, the results are presented from two experiments with N≥6.
A single oocyte, in a 0.4 ml perfusion chamber, was impaled with two standard glass electrodes filed with 3M KCl and maintained under voltage clamp using a Dagan 8500 intracellular clamp. Drugs were included in the perfusate and applied at a flow rate of 8 ml/min. The apparent latency is the time between achieving greater than 80% of the perfusate concentration in the perfusion chamber (5.5 sec after switching to TRH) and the initial deflection of the pen on the chart recorder due to membrane depolarization.
RNA was injected (25-50 nl) at the equator of oocytes, and responses were tested 24 to 72 hours after injection.
This dose dependency is the same as that observed in GH3 cells when rapid effects of TRH, such as generation of inositol 1,4,5-triphosphate or elevation of cytoplasmic calcium, were measured [see J Biol Chem 261:2712 (1986) and J Biol Chem 259:5827 (1984)].

pituitary TRH-R = conditions: Neuroendocrinology 32:310 (1981); cited from earlier work

Row | Compound | Ki ([1]; Xenopus oocytes, 3 days after injection of 5 ng in vitro transcribed RNA, calculated, approximate, read-out: apparent inhibition constant (Ki) for inhibition of [3H]methylTRH binding) [µM] | Ki [2] [µM] | EC50 [3] [µM] | lowest TRH concentration that evoked an electrophysiological response [4] [nM] | EC50 ([4]; read-out: TRH concentration giving half-maximal electrophysiological response) [µM] | EC100 ([4]; read-out: TRH concentration giving maximum electrophysiological response) [µM] | Ki [1] [µM] | affinity relative to TRH for the pituitary TRH-R (higher) (pituitary TRH-R) [fold]
1 | CNC1=Nc2ccc(Cl)cc2C(c2ccccc2)=[N+]([O-])C1 [chlordiazepoxide] | ~3 | 20 |  |  |  |  |  | 
2 | NC(=O)[C@@H]1CCCN1C(=O)[C@H](Cc1cnc[nH]1)NC(=O)[C@@H]1CCC(=O)N1 [TRH, thyrotropin releasing hormone] |  | 0.01 | ~0.01 | 1 | 0.01 | 0.1 | ~0.03 | 
3 | [^3 H]methylTRH |  |  |  |  |  |  |  | 10
